Results on one compound are retold here after patent US20250352543A1, “NANOCRYSTALLINE PREPARATION OF ROCK2 INHIBITOR AND PREPARATION METHOD THEREFOR” (BEIJING TIDE PHARMACEUTICAL CO., LTD., priority 2021, published 2025).

The data set in a line: Solubility of the API. The data set is classed as physicochemical. Particulars: water and a buffer salt solution with pH 1.0-pH 6.8.

The structures appear in SMILES notation.

With `Cn1c(C(=O)N2CC(F)(F)C2)cc2ccc(-c3nccc(Nc4ccc(-c5cn[nH]c5)cc4)n3)cc21` [compound of formula (IV), [6-[4-[[4-(1H-pyrazol-4-yl)phenyl]amino]pyrimidin-2-yl]-1-methyl-1H-indole-2-yl](3,3-difluoroazetidin-1-yl)methanone], the Solubility entry is “insoluble”.
